The test relates to Ehrlich-Ascites-Tumorzellen. The test is described as follows: Inhibition of proliferation of Ehrlich ascites tumour cells in vitro. It counts as cell-based. Particulars: read-out: Hemmung der Proliferation (%) von Ehrlich-Ascites-Tumorzellen in vitro, % Hemmung; for inhibition at 1 µM: Konzentration 1 µM; for inhibition at 2 µM: Konzentration 2 µM; for inhibition at 5 µM: Konzentration 5 µM; for inhibition at 10 µM: Konzentration 10 µM; for inhibition at 20 µM: Konzentration 20 µM; for inhibition at 100 µM: Konzentration 100 µM. From the text: Die Verbindungen der allgemeinen Formel I und Salze davon sind biologisch hochaktiv und besitzen insbesondere eine ausgeprägte Antitumorwirksamkeit. Diese wertvollen pharmakologischen Eigenschaften können in vitro und in vivo unter Verwendung von Standardmethoden nachgewiesen werden, beispielsweise indem die Hemmung der Proliferation von Ehrlich-Ascites-Tumorzellen in vitro unter Einwirkung von Glycero-3(2)-phospho-L-serinderivaten der allgemeinen Formel I bestimmt wird. • In diesem Test (Tabelle I) bewirken die erfindungsgemäßen Verbindungen, beispielsweise • 1-0-Hexadecyl-2-chlor-2-desoxy-glycero-3-phospho-L-serin (Verbindung Nr. 1) • 1-0-Hexadecyl-2-fluor-2-desoxy-glycero-3-phospho-L-serin (Verbindung Nr. 2) • 1-Chlor-1-desoxy-3-0-hexadecyl-glycero-2-phospho-L-serin (Verbindung Nr. 3) • 1-0-(2,2,2-Trifluorethy)-2-0-hexadecyl-glycero-3-phospho-L-serin (Verbindung Nr. 4), schon in sehr geringen Konzentrationen eine signifikante Hemmung des Zellwachstums von Ehrlich-Ascites-Tumorzellen.

As to `CCCCCCCCCCCCCCCCCCOCC(COP(=O)([O-])OCC[N+](C)(C)C)OC` (stereo not shown) [V, 1-O-Octadecyl-2-O-methyl-glycero-3-phosphocholin, reference compound], the inhibition at 1 µM is 0%, the inhibition at 2 µM amounted to 0%, the inhibition at 5 µM was found to be 4% and the inhibition at 10 µM amounted to 23%. Moreover, the inhibition at 20 µM is 62% and the inhibition at 100 µM was 100%.
Take `CCCCCCCCCCCCCCCCOCC(Cl)COP(=O)(O)OC[C@H](N)C(=O)O` (stereo partly drawn) [Verbindung Nr. 1, 1-O-Hexadecyl-2-chlor-2-desoxy-glycero-3-phospho-L-serin]: the inhibition at 1 µM was 16%, the inhibition at 2 µM amounted to 10%, the inhibition at 5 µM is 30% and the inhibition at 10 µM is 55%. Moreover, the inhibition at 20 µM came to 80% and the inhibition at 100 µM was found to be 95%.
As for `CCCCCCCCCCCCCCCCOCC(F)COP(=O)(O)OC[C@H](N)C(=O)O` (stereo partly drawn) [Verbindung Nr. 2, 1-O-Hexadecyl-2-fluor-2-desoxy-glycero-3-phospho-L-serin], the inhibition at 1 µM was 10%, the inhibition at 2 µM came out at 13%, the inhibition at 5 µM stood at 18% and the inhibition at 10 µM was found to be 51%. The inhibition at 20 µM was 82% and the inhibition at 100 µM amounted to 95%.
With `CCCCCCCCCCCCCCCCOCC(CCl)OP(=O)(O)OC[C@H](N)C(=O)O` (stereo partly drawn) [Verbindung Nr. 3, 1-Chlor-1-desoxy-3-O-hexadecyl-glycero-2-phospho-L-serin], the inhibition at 1 µM amounted to 15%, the inhibition at 2 µM turned out to be 17%, the inhibition at 5 µM was 38% and the inhibition at 10 µM is 68%. Moreover, the inhibition at 20 µM stood at 81% and the inhibition at 100 µM turned out to be 93%.
For `CCCCCCCCCCCCCCCCOC(COCC(F)(F)F)COP(=O)(O)OC[C@H](N)C(=O)O` (stereo partly drawn) [Verbindung Nr. 4, 1-O-(2,2,2-Trifluorethyl)-2-O-hexadecyl-glycero-3-phospho-L-serin], the inhibition at 5 µM was 10%, the inhibition at 10 µM is 36%, the inhibition at 20 µM stood at 74% and the inhibition at 100 µM turned out to be 100%.

The values above are taken from patent EP0229128B1, “DERIVATIVES OF GLYCERO-3(2)-PHOSPHO-L-SERINE AND PHARMACEUTICAL PREPARATIONS CONTAINING THEM” (CL PHARMA AKTIENGESELLSCHAFT, priority 1985, dated 1987).
